# Assay results: patent US6506788B1, “N-linked urea or carbamate of heterocyclic thioesters for vision and memory disorders” (GPI Nil Holdings, Inc., priority 1998, dated 2003)
# Like-named read-outs stand apart in the source and are kept apart here. Marks after values point to notes of the source that are not given here.
# Key:
# [1] = tested on: retinal ganglion cell axons; assay: Protection of retinal ganglion cell axons from degeneration following optic nerve transection (Table V); format: in vivo; conditions: ± SEM
# Text: Efficacy of representative compounds from different immunophilin ligand series in protecting retinal ganglion cell axons from degeneration following optic nerve transection is set forth in Table V.
# Efficacy of representative compounds from different immunophilin ligand series in protecting retinal ganglion cell axons from degeneration following optic nerve transection
# [2] = Clearance (Table V comments, no method given); format: in vitro ADME
# [3] = target: FKBP12 (Homo sapiens, UniProt P62942); assay: Ki test procedure: inhibition of peptidyl-prolyl isomerase (rotamase) activity, chymotrypsin-coupled assay; format: biochemical
# FKBP12, sequence (P62942 whole entry, species assumed): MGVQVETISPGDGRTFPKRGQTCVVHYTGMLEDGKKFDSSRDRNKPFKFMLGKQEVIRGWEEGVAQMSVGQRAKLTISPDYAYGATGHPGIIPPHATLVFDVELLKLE
# Text: The inhibition of the prolyl peptidyl cis-trans isomerase activity of FKBP may be measured as an indicator of this affinity.
# Inhibition of the peptidyl-prolyl isomerase (rotamase) activity of the compounds used in the inventive methods and pharmaceutical compositions can be evaluated by known methods described in the literature (Harding et al., Nature, 1989, 341:758-760; Holt et al. J. Am. Chem. Soc., 115:9923-9938).
# The cis-trans isomerization of an alanine-proline bond in a model substrate, N-succinyl-Ala-Ala-Pro-Phe-p-nitroanilide, is monitored spectrophotometrically in a chymotrypsin-coupled assay, which releases para-nitroanilide from the trans form of the substrate. The inhibition of this reaction caused by the addition of different concentrations of inhibitor is determined, and the data is analyzed as a change in first-order rate constant as a function of inhibitor concentration to yield the apparent Ki values.
# In a plastic cuvette are added […] of ice cold assay buffer (25 mM HEPES, pH 7.8, 100 mM NaCl), 10 mL of FKBP (2.5 mM in 10 mM Tris-Cl pH 7.5, 100 mM NaCl, 1 mM dithiothreitol), 25 mL of chymotrypsin (50 mg/ml in 1 mM HCl) and […] of test compound at various concentrations in dimethyl sulfoxide. The reaction is initiated by the addition of 5 mL of substrate (succinyl-Ala-Phe-Pro-Phe-para-nitroanilide, 5 mg/mL in 2.35 mM LiCl in trifluoroethanol).
# The absorbance at 390 nm versus time is monitored for 90 seconds using a spectrophotometer and the rate constants are determined from the absorbance versus time data files.
# [4] = tested on: aged mice; assay: Morris watermaze spatial learning and memory in aged rodents; format: in vivo, C57BL/6N-Nia mice; conditions: 10 mg/kg daily
# Text: The Morris watermaze is widely used for assessing spatial memory formation and retention in experimental animals. The test depends on the animal's ability to utilize spatial visual information in order to locate a submerged escape platform in a water tank. It is important that the tank itself be as devoid of specific visual features as possible—thus, it is always circular in shape, the sides are kept smooth and in uniform dull colors, and the water is rendered opaque with nontoxic watercolor pigment or powdered milk. This is to ensure that the animal navigates only by the use of more distant visual cues, or by the use of intra-maze cues specifically provided by the experimenter. The animals' path, speed, and swim time are tracked with a ceiling camera for later computerized analysis. Over the course of several successive trials, spatial learning can therefore be defined as a drop of distance swum, or time elapsed, from placement in the tank until escape onto the invisible platform. The procedure involved using three-month old (young) and 18-19 month old male C57BL/6N-Nia (aged) mice which habituated to the well known and conventional Morris watermaze during a 4 trials/day, 3-4 day visible platform training phase. […] Swim Distances (cm) were analyzed in a 7×5 ANOVA including Groups and Blocks (1-5) as factors in the analysis, treating Blocks as a repeated measure.
# [5] = tested on: retinal ganglion cells and optic nerve axons; assay: In vivo retinal ganglion cell and optic nerve axon tests: optic nerve transection, 14 or 28 day treatment, sacrifice at 90 days; parameters: species or system Sprague Dawley rats; conditions: for ON head area (% sham) / ON Axon density / pattern of myelin degeneration, proximal stump (myelin basic protein immunohistochemistry) / pattern of myelin labeling and degenerating myelin figures, distal stump: 90 days after transection; for ON Axon density: RT97 labeled axons in 200 μm × 200 μm region; for increased ON axon density: adjusted for optic nerve diameter; for Distat optic nerve: shrinkage of cross sectional area: cross sectional area compared to sham control
# Text: All eyes and optic nerves stumps were removed.
# [6] = tested on: retinal ganglion cells and optic nerve; assay: Retinal ischemia (intraocular pressure raised above arterial blood pressure), examined 28 days later; format: in vivo, rats; conditions: toluidine blue staining; 28 days after 1 hour retinal ischemia
# Text: Retinal ganglion cells were retrogradely labeled in adult rats by bilateral injection of fluorogold in their lateral geniculate nuclei. Labeled ganglion cells in the normal rat retina appear as white profiles against the dark background (FIG. 1A). Complete retinal ischemia was produced by infusing normal saline solution into the retinal vitreous cavity of each eye until the intraocular pressure exceeded arterial blood pressure. 28 days after the ischemic episode extensive degeneration of retinal ganglion cell was evidenced by massive reduction in the density of fluorogold labeled cells (FIG. 1B).
# Optic nerves from vehicle treated cases examined 28 days after a 1 hour retinal ischemic episode are characterized by a decreased density of optic nerve axons and the appearance of numerous degenerating myelin figures (bright white filled circles).
# [7] = tested on: retinal ganglion cells; assay: Example 16: optic nerve transection, 28 days treatment, sacrifice at 90 days; format: in vivo, Sprague Dawley rats; conditions: 10 mg/kg/day s.c. for 28 days; 90 days after transection
# Text: Transection of the mammalian optic nerve results in a brief period of abortive regeneration, but the majority of axotomized neurons die and the axons from many persisting ganglion cells die back beyond the optic nerve head.
# [8] = tested on: retina; assay: Streptozotocin induced diabetes: retinal neovascularization and neuron loss; format: in vivo; conditions: 28 day treatment beginning 8 weeks after onset of diabetes
# [9] = Table V comments, read-out: Ki rotomase
# [10] = apparent Ki, rotamase inhibition, read-out: Ki
molecule,measurement,setting,value
CCC(C)(C)C(=O)C(=O)N1CCCC[C@H]1C(=O)O [G],RT97-RGC axon density 11 days after ON transection (36 ON axon rescued),[1],34.0% ±4.8% SEM
O=C(OCCCc1cccnc1)[C@@H]1CCCN1C(=S)NC1CCCCC1 [I],RT97-RGC axon density 11 days after ON transection (36 ON axon rescued),[1],23.8% ±5.3 SEM
CCC(C)(C)C(=O)C(=O)N1CCS[C@H]1C(=O)OCCCc1cccnc1 [F],RT97-RGC axon density 11 days after ON transection (36 ON axon rescued),[1],55.1% ±5.9% SEM
"3-(3-pyridyl)-1-propyl (2s)-1-(3,3-dimethyl-1,2-dioxopentyl)-2-pyrrolidinecarboxylate [GPI 1046]",Clearance,[2],63.8 µL/min
same,RT97-RGC axon density 11 days after ON transection (36 ON axon rescued),[1],60.5% ±3.9 SEM
same,Ki,[3]; [9],7.5 nM
"O=C(SCCCc1cccnc1)[C@@H]1CCCN1C(=S)NC1CCCCC1 [Compound 7, 3-(3-pyridyl)-1-propylmercaptyl 2S-1-[(cyclohexyl)thiocarbamoyl]-pyrrolidine-2-carboxylate]",Ki,[3]; [10],51 to 200 nM
CCC(C)(C)NC(=O)N1CCC[C@H]1C(=O)SCCCc1cccnc1 [Compound 2],Ki,[3]; [10],51 to 200 nM
O=C(SCCCc1cccnc1)C1CCCN1C(=O)NC1CCCCC1 (stereo not shown) [Compound 6],Ki,[3]; [10],201 to 500 nM
O=C(SCCCc1ccccc1)C1CCCN1S(=O)(=O)Cc1ccccc1 (stereo not shown) [C],Clearance,[2],31.1 µL/min
same,RT97-RGC axon density 11 days after ON transection (36 ON axon rescued),[1],60.4% ±3.1% SEM
same,Ki,[3]; [9],107 nM
COc1ccc(CCCSC(=O)C2CCCCN2C(=O)NC2CCCCC2)cc1 (stereo not shown) [Compound 16],Ki,[3]; [10],51 to 200 nM
"CCC(C)CNC(=O)N1CCC[C@H]1C(=O)SCCCc1cccnc1 (stereo partly drawn) [Compound 1, 3-(3-Pyridyl)-1-propylmercaptyl 2S-1-[(2-methylbutyl)carbamoyl]pyrrolidine-2-carboxylate]",Ki,[3]; [10],1 to 50 nM
O=C(SC(CCc1ccccc1)CCc1ccccc1)C1CCCCN1C(=S)NC1CCCCC1 (stereo not shown) [Compound 15],Ki,[3]; [10],1 to 50 nM
"CCC(C)(C)C(=O)C(=O)N1CCC[C@H]1C(=O)OCCCc1cccnc1 [GPI 1046, 3-(3-pyridyl)-1-propyl (2s)-1-(3,3-dimethyl-1,2-dioxopentyl)-2-pyrrolidinecarboxylate]",difference between young and aged impaired treated groups during retention phase,"[4]; F1.69=3.09, P=0.08",no longer any statistically significant difference
same,"spatial memory performance (swim distance, retention testing)","[4]; aged impaired mice, retention testing after 3 weeks of dosing",significantly enhanced spatial memory performance
same,ON head area (% sham),[5]; ONT/14 days treatment,76%
same,ON Axon density,[5]; ONT/14 days treatment,569
same,increased ON axon density,[5]; ONT/14 days treatment,1.5X
same,Distat optic nerve: shrinkage of cross sectional area,[5]; ONT/14 days treatment,did not protect against shrinkage of the distal stump
same,Distat optic nerve myclin basic protein Density (myelin level),"[5]; ONT/14 days treatment, cross sectional area multiplied by myelin density",slightly increase the density of myelin
same,ON head area (% sham),[5]; ONT/28 days treatment,95%*
same,ON Axon density,[5]; ONT/28 days treatment,significant increase
same,increased ON axon density,[5]; ONT/28 days treatment,5.0 X
same,Distat optic nerve: shrinkage of cross sectional area,[5]; ONT/28 days treatment,prevented cross sectional shrinkage
same,"pattern of myelin degeneration, proximal stump (myelin basic protein immunohistochemistry)",[5]; first 14 days treatment,did not alter the pattern of myelin degeneration
same,"pattern of myelin labeling and degenerating myelin figures, distal stump",[5]; first 14 days treatment,density of degenerating myelin figures remained high
same,"pattern of myelin degeneration, proximal stump (myelin basic protein immunohistochemistry)",[5]; first 28 days treatment,dramatic preservation of the fascicular staining pattern
same,"pattern of myelin labeling and degenerating myelin figures, distal stump",[5]; first 28 days treatment,dramatic protection of the fascicular pattern of myelin labeling
same,density of degenerating myelin figures in optic nerve,[6],dramatically decreased
same,preservation of axons in the proximal stump (RT97 neurofilament),[7],preserved the axons of virtually all protected neurons
same,neuronal loss in the ONL,[8],did not appear to protect against neuronal loss
same,loss of neurons in the INL and GCL,[8]; vs streptozotocin/vehicle controls,appeared to decrease the loss of neurons
CCC(C)(C)C(=O)C(=O)N1CCCC1C(=O)O (stereo not shown) [L],Clearance,[2],5.2 µL/min
same,RT97-RGC axon density 11 days after ON transection (36 ON axon rescued),[1],7.8% ±3.0% SEM
CCC(C)(C)C(=O)C(=O)N1CCCC[C@H]1C(=O)SCCC(c1ccccc1)c1ccccc1 [K],RT97-RGC axon density 11 days after ON transection (36 ON axon rescued),[1],13.0% ±4.2% SEM
CCC(C)(C)NC(=O)N1CCCCC1C(=O)SCCCc1ccccc1 (stereo not shown) [Compound 11],Ki,[3]; [10],51 to 200 nM
O=C(SCCCc1ccccc1)C1CCCCN1C(=O)Nc1ccccc1 (stereo not shown) [Compound 12],Ki,[3]; [10],1 to 50 nM
CCC(C)(C)C(=O)C(=O)N1CCCC[C@H]1C(N)=O [H],RT97-RGC axon density 11 days after ON transection (36 ON axon rescued),[1],30.3% ±8.0% SEM
CCC(C)(C)C(=O)C(=O)N1CCC[C@H]1C(=O)CCCCc1cccnc1 [J],RT97-RGC axon density 11 days after ON transection (36 ON axon rescued),[1],15.8% ±4.8% SEM
CCC(C)(C)NC(=O)N1CCCC1C(=O)SCCc1ccccc1 (stereo not shown) [Compound 4],Ki,[3]; [10],51 to 200 nM
O=C(SCCCc1ccccc1)C1CCCN1C(=O)NC12CC3CC(CC(C3)C1)C2 (stereo not shown) [B],RT97-RGC axon density 11 days after ON transection (36 ON axon rescued),[1],100.0% ±5.2% SEM
same,Ki,[3]; [9],149 nM
CCC(C)(C)C(=O)C(=O)N1CCC[C@H]1C(=O)SCCC(c1ccccc1)c1ccccc1 [M],RT97-RGC axon density 11 days after ON transection (36 ON axon rescued),[1],−6.3% +3.9% SEM
O=C(OCCCCc1ccccc1)[C@@H]1CCCCN1S(=O)(=O)Cc1ccccc1 [D],RT97-RGC axon density 11 days after ON transection (36 ON axon rescued),[1],58.4% ±6.4% SEM
